What was measured:
TrkB = target: T1, TrkB (Rattus norvegicus, UniProt Q63604); assay: Competition binding with biotinylated R,R-HNK; conditions: ext fig 1g
T1 construct: expressed in transfected cells; host or cells: HEK293T
Procedure: Binding assays were performed as previously described with minor modifications. […] Samples from mouse embryo (E18) brains were also lysed, vortexed, sonicated and centrifuged for binding assays. Plates were then washed with PBS. […] For the competition binding assays with biotinylated R,R-HNK, the amino-biotinylation of R,R-HNK was performed using a commercial kit (Thermo Scientific, EZ-Link NHS-PEG4 Biotinylation Kit, 21455) and the reaction monitored by MS. A mixture of biotinylated R,R-HNK (10 µM) and unlabeled compounds (1 pM to 10 µM) in PBS was added to the 96-well plates containing the immunoprecipitated TrkB and incubated for 1 h at room temperature. […] Luminescence was determined via streptavidin conjugated with horseradish peroxidase (HRP; Thermo Fisher Scientific, 21126; 1:5,000, 1 h at room temperature) in reaction with the Pierce ECL substrate (Thermo Fisher Scientific, 32106). Luminescence from blank wells that contained all reagents but the sample lysates was used to determine nonspecific binding. To obtain the binding curves, results from binding assays were fitted to the equation of specific binding with Hill slope from GraphPad Prism 9.2. To calculate koff values, results were fitted to the equation of dissociation of one phase exponential decay from GraphPad Prism 9.2.

TrkB(WT):Fyn = target: T2, TrkB(WT):Fyn (Rattus norvegicus, UniProt Q63604); assay: PCA of TrkB interaction with lipid raft Fyn in N2a cells; type: cell-based
T2 construct: expressed in transfected cells; host or cells: N2a
T2 sequence (Q63604 32-821): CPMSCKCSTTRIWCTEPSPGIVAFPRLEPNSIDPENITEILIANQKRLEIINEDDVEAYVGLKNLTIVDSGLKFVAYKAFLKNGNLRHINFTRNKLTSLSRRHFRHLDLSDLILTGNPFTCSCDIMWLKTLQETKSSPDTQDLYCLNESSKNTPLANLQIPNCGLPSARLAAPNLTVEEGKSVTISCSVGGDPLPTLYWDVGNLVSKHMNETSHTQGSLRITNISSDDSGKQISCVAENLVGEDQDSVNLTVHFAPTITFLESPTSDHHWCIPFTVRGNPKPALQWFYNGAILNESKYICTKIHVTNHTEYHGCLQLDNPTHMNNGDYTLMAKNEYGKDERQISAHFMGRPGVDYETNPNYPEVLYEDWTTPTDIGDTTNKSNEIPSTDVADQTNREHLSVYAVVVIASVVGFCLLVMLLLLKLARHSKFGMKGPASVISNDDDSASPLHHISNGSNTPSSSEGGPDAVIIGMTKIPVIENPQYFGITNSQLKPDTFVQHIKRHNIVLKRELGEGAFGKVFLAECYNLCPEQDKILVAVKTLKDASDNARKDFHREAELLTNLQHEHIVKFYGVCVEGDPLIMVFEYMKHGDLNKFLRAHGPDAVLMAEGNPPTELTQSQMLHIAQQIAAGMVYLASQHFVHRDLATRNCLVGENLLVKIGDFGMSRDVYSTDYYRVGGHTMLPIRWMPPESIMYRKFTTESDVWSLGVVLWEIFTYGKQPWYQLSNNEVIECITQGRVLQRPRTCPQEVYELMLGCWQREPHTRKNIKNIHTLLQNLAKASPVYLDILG
Procedure: (§1) Ketanserin, M100907 and TRKB.FC were added to the media 10 min before treatment. The PCA method was performed as previously described[11],[75],[76]. Split humanized Gaussia princeps luciferase (hGLuc) was cloned on the C-terminus of the reporter proteins TrkB (WT and Y433F) and lipid raft Fyn. If the reporter proteins that carry complementary halves of the luciferase interact, the enzyme can refold in its functional conformation and, upon addition of its substrate, produce luminescence proportionally to the amount of reporter proteins interacting at a given time. N2a cells were seeded in 96-well plates with opaque walls and transparent bottom (PerkinElmer, ViewPlate 96). Cells were transfected with Lipofectamine 2000 according to the manufacturer’s instructions 24 h post-plating with the PCA pair plasmids: phGLuc(1C)-TrkB(WT) or the mutant phGLuc(1C)-TrkB(Y433F) and phGLuc(2 C)-TrkB(WT) for the dimerization experiments; phGLuc(1C)-lipid raft Fyn and phGLuc(2C)-TrkB(WT) or phGLuc(2C)-TrkB(Y433F) for the lipid raft localization experiments. Forty-eight hours post transfection, cells were treated (40 min, 37 °C) in phenol red-free Dulbecco’s modified Eagle medium without serum. […] The PCA signal was detected with the substrate for the luciferase, native coelenterazine, which was injected into each well directly in the plate reader at a final concentration of […]. One data point was excluded from Fig. 4b by applying Grubb’s method for outlier detection test, which detected it as a significant outlier.

TrkB(Y433F):Fyn = target: T3, TrkB(Y433F):Fyn (Rattus norvegicus, UniProt Q63604, Y433F); assay: as above; type: cell-based; conditions: Y433F^+/− dimers
T3 construct: expressed in transfected cells; host or cells: N2a
T3 sequence (Q63604 32-821 Y433F): as the sequence (Q63604 32-821) above, with Y402F counted along it
Procedure: as §1

pERK = assay: Western blot of ERK phosphorylation in cortical neurons; type: cell-based, rat
Procedure: In a separate set of experiments to examine the effect of 5-HT2A activation, M100907 (100 nM) was administered as a 10 min pretreatment and remained in the medium for the rest of the experiment. Next, cells were lysed and centrifuged. […] The co-immunoprecipitation was carried out as previously described[11],[23],[24] with minor modifications. Briefly, Magnetic Dynabeads Protein G (Invitrogen, 10004D) were coated with anti-TrkB antibody (R&D Systems, AF1494) at 200 ng of antibody per 1 µl of beads in rotation (2 h, 4 °C). Finally, lysates were mixed with the coated beads (100 µg of total protein per 15 µl of beads) and incubated in rotation (overnight, 4 °C).
Proteins were separated according to their molecular weight by SDS–PAGE and transferred to a polyvinylidene fluoride membrane. Membranes were incubated with the following primary antibodies (all 1:1,000 in 3% BSA in TBS-T, overnight, 4 °C): anti-TrkB (R&D Systems, AF1494), anti-β-actin (Sigma-Aldrich, A1978), anti-phospho-mTOR (Cell Signaling Technology, 5536S), anti-phospho-p44/42 MAPK (Erk1/2) (Cell Signaling Technology, 9106S), anti-mTOR (Cell Signaling Technology, 2972S) and anti-p44/42 MAPK (Erk1/2) (Cell Signaling Technology, 9102S). […] Protein bands were visualized using enhanced chemiluminescent substrate (Thermo Scientific, 32132, ECL Plus) and imaged with a charge-coupled device camera (G:BOX, Syngene).

mice = assay: Repeated forced swimming test (rFST); type: in vivo, mouse
Procedure: rFST was conducted in WT and Y433F^+/− mice as described in literature[33],[92] with minor modifications. Briefly, female and male adult mice were exposed to five consecutive pretest sessions (5 min of duration, 24 h apart). […] The animals were submitted to a 5 min test session 7 days after the drug administration. The apparatus consisted of 5 l glass beaker cylinders (19 cm diameter, 20 cm water column at 23 ± 2 °C). The water was changed between each trial, for each animal. After each session, the animals were dried and kept in a warmed cage before returning to their home cages. The pretest and test sessions were recorded and analyzed by a trained observer blind to treatment and genotype.

[1] = 7 d, saline minus LSD, Bonferroni's multiple comparisons test

T1 sequence (Q63604 32-821): as the sequence (Q63604 32-821) above

For `CN(C)CCc1c[nH]c2cccc(O)c12` [PSI, psilocin], the “K (one phase decay, best-fit)” value (TrkB) was 89050556, the “Plateau (one phase decay, best-fit)” value (TrkB) was 38.6 and the “Span (one phase decay, best-fit)” value (TrkB) was 50.23. The “Tau (one phase decay, best-fit)” value (TrkB) was 1.12E-08, the “Y0 (one phase decay, best-fit)” value (TrkB) was 88.84 and the “TrkB interaction with Fyn” value (TrkB(WT):Fyn) was “increase TrkB interaction with lipid raft-restricted Fyn”. The “TrkB interaction with Fyn” value (TrkB(Y433F):Fyn) was “this effect is lost”.
In the case of `COc1cccc([C@H](O)C2CCN(CCc3ccc(F)cc3)CC2)c1OC` [M100907], the “effect of pretreatment on LSD-induced increase in pERK” value (pERK; M100907 100 nM) is reported as “does not prevent LSD-induced increase in pERK”, the “pERK, group mean (5e)” value (pERK; M100907:Vehicle (M100907 100 nM alone), vehicle 100) is reported as 108 and the “pERK, row mean of M100907 (5e)” value (pERK; over vehicle and LSD treatment, mean of vehicle row 184.0) is reported as 210.8. The “effect of pretreatment on antidepressant-like effect of LSD in rFST” value (mice; M100907 0.5 mg kg^−1) was “did not prevent the antidepressant-like effect of LSD”.
`CCN(CC)C(=O)C1C=C2c3cccc4[nH]cc(c34)CC2N(C)C1` (stereo not shown) [LSD, lysergic acid diethylamide] was tested, and the “K (one phase decay, best-fit)” value (TrkB) was 638387713, the “Plateau (one phase decay, best-fit)” value (TrkB) was 36.42 and the “Span (one phase decay, best-fit)” value (TrkB) was 48.28. The “Tau (one phase decay, best-fit)” value (TrkB) was 1.57E-09, the “Y0 (one phase decay, best-fit)” value (TrkB) was 84.7 and the “phosphorylation of ERK (pERK)” value (pERK; LSD 100 nM) was “rapidly increases phosphorylation of ERK (pERK)”. For the same molecule, the “pERK, group mean (5d)” value (pERK; LSD 100 nM, 5 min, vehicle 100) was 167.8, the “pERK, group mean (5d)” value (pERK; LSD 100 nM, 1 h, vehicle 100) was 200.7 and the “pERK, group mean (5d)” value (pERK; LSD 100 nM, 24 h, vehicle 100) was 100.4. The “pERK, group mean (5e)” value (pERK; M100907:LSD (LSD after M100907 pretreatment), vehicle 100) was 313.5, the “pERK, group mean (5e)” value (pERK; Vehicle:LSD, vehicle 100) was 268.1 and the “pERK, column mean over timepoints (5d)” value (pERK; mean of 5 min, 1 h, 24 h, vehicle 100) was 156.3. The “pERK, column mean of LSD (5e)” value (pERK; over vehicle and M100907 pretreatment, mean of vehicle 104) was 290.8, the “Mean, figure 7g (repeated forced swimming test)” value (mice; 7 d, pretest = 100) was 81.36 and the “Mean Diff., figure 7f, WT+SAL vs. WT+LSD” value (mice; [1]) was 34.99. For the same molecule, the “Mean Diff., figure 7f, Y433F+/-+SAL vs. Y433F+/-+LSD” value (mice; [1]) was 7.08, the “Mean Diff. vs. Vehicle, figure 7g” value (mice; 7 d, vehicle minus treated, Bonferroni's multiple comparisons test) was 13.93 and the “antidepressant-like effect in rFST” value (mice; WT mice, 7 days after single administration) was “sustained antidepressant-like effect”. For the same molecule, the “Mean, figure 7f (repeated forced swimming test)” value (mice; WT+LSD, 7 d, pretest = 100) was 60.98, the “Mean, figure 7f (repeated forced swimming test)” value (mice; Y433F+/-+LSD, 7 d, pretest = 100) was 93.99 and the “antidepressant-like effect in rFST” value (mice; Y433F^+/− mice) was “not Y433F^+/− mice”. The “TrkB interaction with Fyn” value (TrkB(WT):Fyn) was “increase TrkB interaction with lipid raft-restricted Fyn” and the “TrkB interaction with Fyn” value (TrkB(Y433F):Fyn) was “this effect is lost”.

Source: paper PMC10244169, “Psychedelics promote plasticity by directly binding to BDNF receptor TrkB” (Nature Neuroscience, 2023)
